The target in one assay is T1, DOHH (Homo sapiens, UniProt Q9BU89).
T1 construct: pelB leader (N); host or cells: E. coli BL21 (DE3)
T1 sequence (Q9BU89 1-302): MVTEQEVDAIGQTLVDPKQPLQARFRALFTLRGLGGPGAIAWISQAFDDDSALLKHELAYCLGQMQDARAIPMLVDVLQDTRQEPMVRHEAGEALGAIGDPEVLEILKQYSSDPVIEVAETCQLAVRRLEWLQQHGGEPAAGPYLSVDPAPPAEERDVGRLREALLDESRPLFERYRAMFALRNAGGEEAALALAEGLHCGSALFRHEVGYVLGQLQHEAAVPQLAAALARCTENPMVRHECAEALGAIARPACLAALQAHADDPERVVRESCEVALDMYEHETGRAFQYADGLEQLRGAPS
In words: Hyp'Assay, substance added after the deoxyhypusination reaction (DOHH step). Format: biochemical. The conditions noted are these: for hypusination signal, Mean (quantification from Figure 3C): control 100,0. Here is the method:
We then tested the ability of DOHH inhibitors to inhibit eIF5A hypusination using the Hyp’Assay. During the Hyp’Assay, DOHH inhibitors were added after the deoxyhypusination reaction.
To address this issue, we compared the ability of GC7 to inhibit DHPS or DOHH by adding GC7 during the first step of the Hyp’Assay; when DHPS mediates the deoxyhypusination reaction (Fig 2A), or only during the second step, when DOHH hydroxylate deoxyhypusinated eIF5A. […] When finding new hypusination inhibitors adding them during the first or the second step of the Hyp’Assay will allow us to determine if the inhibition affects DHPS or DOHH. Another way to discriminate between DHPS or DOHH inhibitors would be to use Hpu98, an antibody that recognized both hypusinated and deoxyhypusinated eIF5A, instead of Hpu24, which is specific for hypusinated eIF5A [18]. […] We performed a new Hyp’Assay by omitting DOHH in the reaction mix and using the Hpu98 antibody. First, we performed a dose response experiment with spermidine at pH: 8.0 and 9.0 (Fig 3E). […] We also tested the ability of GC7 (Fig 3F) and CPX or EDTA (Fig 3G) to inhibit DHPS.
(§1) […] Then 10 μL containing 1 μg of DOHH with 10 μM Fe^2+ (H8FeN2O8S2^. 6H2O) were added. After 1 h proteins were analyzed by Western Blot using antibodies toward DHPS, DOHH, Hypusine, and eIF5A.
(§2) The cell-free reaction described in 4.4 is performed in triplicates in a 96-wells plate (MaxiSorp, ThermoFisher) in the presence of 3 μg of eIF5A, 2 μg of DHPS, and 2 μg of DOHH by well. The reaction product, hypusinated eIF5A, is adsorbed onto the plate overnight at 4°C. The plate is washed (100 μL/well) thrice with PBS-T (PBS– 0.05% Tween20), then saturated with 1% non-fat dry milk in PBS-T for 2 h at room temperature. The plate is washed thrice with PBS-T and incubated overnight at 4°C with the anti-hypusine antibody (1:2000 in saturation buffer, 50 μL/well). The next day and after 5 washes with PBS-T, HRP-coupled anti-rabbit secondary antibody diluted 1:5000 in saturation buffer (50 μL/well) is added for 2 h at room temperature.

In assay [1] the test system is eIF5A hypusination in MCF7 cells. In words: eIF5A hypusination in intact MCF7 cells, Western blot. The assay is classed as cell-based, human. Particulars: 40 μM, 24 h, Ctrl 100, 4 experiments. The procedure:
We tested the ability of the GC7 analogs to inhibit hypusination in intact cells. MCF-7 cells (Fig 5B), a classical model of breast cancer cell line, and HT29 cells (Fig 5C), a cell model of colorectal cancer, were treated with 40 μM of GC7, 1, 2, 3, and 4 for 24h. Cells were lysed and analyzed by Western blot. As observed, none of the molecules modified eIF5A expression. […] GC7 analogs inhibited hypusination from 35 to 55%.
The human breast cancer cell line MCF7 (HTB-22 ATCC) and colorectal adenocarcinoma HT29 (HTB-38 ATCC) were cultured in DMEM (Gibco) supplemented with 10% FBS (Dutscher), 10 U/mL penicillin, and […] streptomycin. 1 mM of aminoguanidine was added to the medium to inhibit the degradation of GC7 and polyamines by amine oxidase from the serum and the production of reactive oxygen species. Cells were maintained at 37°C, 5% CO2 in a humid atmosphere.
After treatment, cells were washed with ice-cold PBS and lysed in RIPA Buffer (50 mM Tris pH 7.5, 150 mM NaCl, 0.1% SDS, 0.5% Na Deoxycholate, 5 mM NaF, 2.5 mM Na4P2O7, 1% NP4O) containing a protease inhibitor cocktail (complete Roche). 10 μg of proteins were separated by SDS PAGE and transferred to a PVDF membrane (Immobilon-P Millipore). The membranes were probed with the appropriate primary antibody that was detected by horseradish peroxidase-conjugated secondary antibody (Jackson Immunoresearch) and visualized by chemiluminescence (ECL Amersham RPN 3244) using a Fuji LAS-4000 imager. ImageJ® software was used to quantify band intensity and the ratios of proteins of interest were normalized to a loading control. Full-length Western blots are provided in the supplementary data (S19, S20 Figs).
Background: Immunoblotting shows a protein as a band on a membrane.

The target of assay [2] is T2, DHPS (Homo sapiens, UniProt P49366).
T2 construct: host or cells: E. coli BL21 (DE3)
T2 sequence (P49366 1-369): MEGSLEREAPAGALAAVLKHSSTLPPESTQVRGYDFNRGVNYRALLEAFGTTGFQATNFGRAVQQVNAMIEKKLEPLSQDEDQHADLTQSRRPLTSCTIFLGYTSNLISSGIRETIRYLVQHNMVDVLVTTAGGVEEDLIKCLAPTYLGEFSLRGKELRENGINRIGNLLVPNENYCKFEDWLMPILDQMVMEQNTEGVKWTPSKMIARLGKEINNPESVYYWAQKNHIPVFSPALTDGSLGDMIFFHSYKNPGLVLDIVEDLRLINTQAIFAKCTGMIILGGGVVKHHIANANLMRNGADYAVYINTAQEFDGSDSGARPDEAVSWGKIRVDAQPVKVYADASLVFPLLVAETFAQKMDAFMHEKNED
In words: Hyp'Assay: cell-free eIF5A hypusination in 96-well plates (recombinant eIF5A, DHPS, DOHH; anti-hypusine antibody Hpu24), substance present in the DHPS step. The assay is classed as biochemical. The conditions noted are these: for hypusination signal, Mean (quantification from Figure 5A): control 98,5; for hypusination signal, Mean (quantification from Figure 3B): control 100,0. Here is the method:
The principle of the Hyp’Assay (Fig 2A) is to perform eIF5A hypusination reaction in 96-well plates, allow eIF5A to adsorb to the plate, incubate with an anti-hypusine antibody and a secondary antibody conjugated to HRP and reveal hypusination using TMB as a substrate.
as §1, §2

Assay [3] has as its target T2, DHPS. In words: Hyp'Assay without DOHH: deoxyhypusination of eIF5A revealed with Hpu98 antibody. Format: biochemical. The conditions noted are these: 5 μM spermidine; CTRL 100,0; inhibitor concentration not given.
Source text: To address this issue, we compared the ability of GC7 to inhibit DHPS or DOHH by adding GC7 during the first step of the Hyp’Assay; when DHPS mediates the deoxyhypusination reaction (Fig 2A), or only during the second step, when DOHH hydroxylate deoxyhypusinated eIF5A. […] This confirms the specificity of GC7 towards DHPS. When finding new hypusination inhibitors adding them during the first or the second step of the Hyp’Assay will allow us to determine if the inhibition affects DHPS or DOHH. Another way to discriminate between DHPS or DOHH inhibitors would be to use Hpu98, an antibody that recognized both hypusinated and deoxyhypusinated eIF5A, instead of Hpu24, which is specific for hypusinated eIF5A [18]. […] We performed a new Hyp’Assay by omitting DOHH in the reaction mix and using the Hpu98 antibody. First, we performed a dose response experiment with spermidine at pH: 8.0 and 9.0 (Fig 3E). The Hyp’Assay allows the detection of deoxyhypusinated eIF5A in a spermidine-dependent manner. Under these conditions, deoxyhypusination was equally efficient at both pH tested. […] We also tested the ability of GC7 (Fig 3F) and CPX or EDTA (Fig 3G) to inhibit DHPS. […] This provided us with another method to distinguish between DHPS and DOHH inhibitors.
as §2

Setting [4] is: concentration 1 (no unit on page; Fig 3C dose-response 0 to 100 μM).
[5] abbreviates: concentration 10 (no unit on page; Fig 3C dose-response 0 to 100 μM).
Where [6] appears, read: concentration 100 (no unit on page; Fig 3C dose-response 0 to 100 μM).
The mark [7] stands for this setting: concentration 1 (no unit on page; Fig 3B dose-response 0 to 1 mM).
The mark [8] stands for this setting: concentration 10 (no unit on page; Fig 3B dose-response 0 to 1 mM).
Setting [9] is: concentration 100 (no unit on page; Fig 3B dose-response 0 to 1 mM).
Where [10] appears, read: concentration 1000 (no unit on page; Fig 3B dose-response 0 to 1 mM).

`CC(=O)N(O)CCCCCNC(=O)CCC(=O)N(O)CCCCCNC(=O)CCC(=O)N(O)CCCCCN` [DFX, deferoxamine]: the “hypusination signal, Mean (quantification from Figure 3C)” value on DOHH (setting [4]) was 28,29; at DOHH (setting [5]) it was 58,42; at DOHH (setting [6]), 34,21.
Take `N=C(N)NCCCCCCCO` [compound 3, 7-hydroxyheptylguanidine]: the “hypusinated eIF5A, Western blot quantification, Mean (Figure 5B)” value in assay [1] is listed as 50.5. At DHPS [2] (5 μM spermidine), the “concentration from which inhibition of hypusination was detectable” value came out at 1 µM. Also, the “hypusination signal, Mean (quantification from Figure 5A)” value is on record as 75,7 at DHPS [2] (concentration 1 (no unit on page; Fig 5A 0 to 1 mM), 5 μM spermidine); 65,6 on DHPS [2] (concentration 10 (no unit on page; Fig 5A 0 to 1 mM), 5 μM spermidine); 63,6 at DHPS [2] (concentration 100 (no unit on page; Fig 5A 0 to 1 mM), 5 μM spermidine); 58,2 on DHPS [2] (concentration 1000 (no unit on page; Fig 5A 0 to 1 mM), 5 μM spermidine).
In the case of `Nc1nc(=O)c2nc(CNc3ccc(C(=O)N[C@@H](CCC(=O)O)C(=O)O)cc3)cnc2[nH]1` [Folate, folic acid], at DOHH (at 1 μM), 1 µM produced 50% inhibition. In addition, the “hypusination signal, Mean (quantification from Figure 3C)” value on DOHH (setting [4]) was 56,38; at DOHH (setting [5]), 57,32; on DOHH (setting [6]) it was 65,33.
Take `C[S+](C)[O-]` [DMSO]: the inhibition of hypusination at DHPS [2] (10% DMSO of the total reaction mixture) is 33%. At DHPS [2] (standard concentrations of DMSO (less than 10%)), the “effect on hypusination of eIF5A” value is recorded as “not affected”.
In the case of `O=C(O)CN(CCN(CC(=O)O)CC(=O)O)CC(=O)O` [EDTA], the maximal inhibition on DOHH (at 100 μM EDTA) is 80%. Further, the “Relative deoxyhypusination of eIF5A, Mean (quantification from Figure 3F, 3G)” value at DHPS [3] is 97,63 a.u.
With `NCCCNCCCCNCCCN` [spermine], the “hypusination signal, Mean (quantification from Figure 3C)” value is recorded as 69,38 at DOHH (setting [4]), 59,12 on DOHH (setting [5]) and 54,32 at DOHH (setting [6]). Moreover, the “hypusination signal, Mean (quantification from Figure 3B)” value is 106,1 at DHPS [2] (setting [7]), 114,0 on DHPS [2] (setting [8]), 104,5 at DHPS [2] (setting [9]) and 111,4 on DHPS [2] (setting [10]). Moreover, the “effect on eIF5A hypusination” value on DHPS [2] (concentrations up to 1 mM) was “did not affect eIF5A hypusination”. Also, the “use as alternate DHPS substrate” value at DHPS [2] (dose response compared with spermidine (S3 Fig)) was “can be used as a substrate by DHPS in the Hyp’Assay, although with lower efficiency than spermidine”. Further, the “hypusination signal with the substance as substrate, Mean (quantification from Figure S3)” value on DHPS [2] (substrate concentration 0,01 (mM)) was -0,07; on DHPS [2] (substrate concentration 0,1 (mM)), 0,01; on DHPS [2] (substrate concentration 0,0001 (mM)), 0,19; at DHPS [2] (substrate concentration 0,001 (mM)), -0,08; on DHPS [2] (substrate concentration 1 (mM)), 2,17; at DHPS [2] (substrate concentration 10 (mM)), 21,70. Also, the “hypusination signal with the substance as substrate, Mean (quantification from Figure S3)” value is listed as 39,64 on DHPS [2] (substrate concentration 100 (mM)) and 28,97 at DHPS [2] (substrate concentration 1000 (mM)).
As for `CCNCCCNCCCNCCCNCC` [BENSPM, N1,N11-diethylnorspermine], the decrease in hypusination on DHPS [2] (at 100 μM) was 12%. Also, the inhibition of hypusination on DHPS [2] (at 1 mM) came to 43%. In addition, the “hypusination signal, Mean (quantification from Figure 3B)” value is 97,3 at DHPS [2] (setting [7]), 101,9 on DHPS [2] (setting [8]), 88,5 at DHPS [2] (setting [9]) and 42,9 at DHPS [2] (setting [10]).
Regarding `NCCCCN` [putrescine], the inhibition (commonly the share of the control response that was lost under treatment) at 1000 µM at DHPS [2] (at 1 mM) is 70%. The “hypusination signal, Mean (quantification from Figure 3B)” value is 111,3 at DHPS [2] (setting [7]), 94,6 at DHPS [2] (setting [8]), 95,3 at DHPS [2] (setting [9]) and 30,5 on DHPS [2] (setting [10]).
For the compound `Cc1cc(C2CCCCC2)n(O)c(=O)c1` [CPX, ciclopirox], the “hypusination signal, Mean (quantification from Figure 3C)” value is reported as 97,78 at DOHH (setting [4]), 85,18 on DOHH (setting [5]) and 55,02 at DOHH (setting [6]). The compound also yielded a maximal inhibition at DOHH (dose-response 0 to 100 μM) of 50%. Also, the “Relative deoxyhypusination of eIF5A, Mean (quantification from Figure 3F, 3G)” value on DHPS [3] is 101,2 a.u.

(Values after PMC11819603, “Development of a reliable, sensitive, and convenient assay for the discovery of new eIF5A hypusination inhibitors” (PLOS ONE, 2025).)
